Laboratory results reported in patent publication US8586739B2, “Heterocyclic compounds and their uses” (Amgen Inc., priority 2007, dated 2013).

test system: human B cells; assay: Human B cells proliferation stimulated by anti-IgM (3H thymidine); format: cell-based; conditions: Homo sapiens, B-cell, 72 h, purified human B cells, anti-Human IgM + CD40L-LZ
Procedure: Human B Cells Proliferation stimulate by anti-IgM
Isolate PBMCs from Leukopac or from human fresh blood. Isolate human B cells by using Miltenyi protocol and B cell isolation kit II.—human B cells were Purified by using autoMACS® column.
Activation of Human B Cells
Use 96 well Flat bottom plate, plate 50000/well purified B cells in B cell proffer-ation medium (DMEM+5% FCS, 10 mM Hepes, 50 μM 2-mercaptoethanol); 150 μL medium contain 250 ng/mL CD40L-LZ recombinant protein (Amgen) and 2 μg/mL anti-Human IgM antibody (Jackson ImmunoReseach Lab.#109-006-129), mixed with 50 μL B cell medium containing PI3K inhibitors and incubate 72 h at 37° C. incubator. After 72 h, pulse labeling B cells with 0.5-1 uCi/well ^3H thymidine for overnight ˜18 h, and harvest cell using TOM harvester.

| SMILES | IC50 [µM] |
| --- | --- |
| C[C@@H](Nc1ncnc2[nH]cnc12)c1nc2cccc(Cl)c2cc1-c1cccc(F)c1 [N-((1R)-1-(5-chloro-3-(3-fluorophenyl)-2-quinolinyl)ethyl)-9H-purin-6-amine] | 0.021 |
| C[C@H](Nc1ncnc2[nH]cnc12)c1cc2cccc(Cl)c2nc1-c1cncs1 [N-((S)-1-(8-Chloro-2-(thiazol-5-yl)quinolin-3-yl)ethyl)-9H-purin-6-amine] | 0.0219 |
| C[C@H](Nc1ncnc2[nH]cnc12)c1cc2ccc(F)cc2nc1-c1ccccc1Cl [N-((1S)-1-(2-(2-chlorophenyl)-7-fluoro-3-quinolinyl)ethyl)-9H-purin-6-amine] | 0.029 |
| Fc1cccc2nc(CNc3ncnc4[nH]cnc34)c(-c3ccccc3Cl)nc12 [N-((3-(2-Chlorophenyl)-5-fluoroquinoxalin-2-yl)methyl)-9H-purin-6-amine] | 0.299 |
| C[C@H](Nc1ncnc2[nH]cnc12)c1cc2ccc(F)cc2nc1-c1cccc(F)c1 [N-((1S)-1-(7-fluoro-2-(3-fluorophenyl)-3-quinolinyl)ethyl)-9H-purin-6-amine] | 0.0115 |
| C[C@@H](Nc1ncnc2[nH]cnc12)c1nc2cccc(C(F)(F)F)c2nc1-c1ccccc1Cl [N-((1R)-1-(3-(2-chlorophenyl)-5-(trifluoromethyl)-2-quinoxalinyl)ethyl)-9H-purin-6-amine] | 0.0534 |
| COc1ccc(F)cc1-c1nc2c(Cl)cccc2cc1CNc1ncnc2[nH]cnc12 [N-((8-chloro-2-(5-fluoro-2-methoxyphenyl)-3-quinolinyl)methyl)-9H-purin-6-amine] | 0.0274 |
| C[C@H](Nc1ncnc2[nH]cnc12)c1cc2cccc(Cl)c2nc1-c1ccccc1F [N-((1S)-1-(8-chloro-2-(2-fluorophenyl)-3-quinolinyl)ethyl)-9H-purin-6-amine] | 0.00356 |
| C[C@H](Nc1ncnc2[nH]cnc12)c1cc2cccc(Cl)c2nc1-c1cccnc1 [N-((1S)-1-(8-chloro-2-(3-pyridinyl)-3-quinolinyl)ethyl)-9H-purin-6-amine] | 0.00344 |
| Fc1cc(F)cc(-c2nc3c(Cl)cccc3cc2CNc2ncnc3[nH]cnc23)c1 [N-((8-chloro-2-(3,5-difluorophenyl)-3-quinolinyl)methyl)-9H-purin-6-amine] | 0.056 |
| C[C@@H](Nc1ncnc2[nH]cnc12)c1cc2cccc(Cl)c2nc1-c1nccs1 [N-((1R)-1-(8-chloro-2-(1,3-thiazol-2-yl)-3-quinolinyl)ethyl)-9H-purin-6-amine] | 0.182 |
| Clc1cccc2cc(CNc3ncnc4[nH]cnc34)c(-c3cccs3)nc12 [N-((8-chloro-2-(2-thiophenyl)-3-quinolinyl)methyl)-9H-purin-6-amine] | 0.104 |
| C[C@H](Nc1ncnc2[nH]cnc12)c1cc2ccc(F)cc2[n+]([O-])c1-c1ccccc1 [N-((1S)-1-(7-fluoro-1-oxido-2-phenyl-3-quinolinyl)ethyl)-9H-purin-6-amine] | 0.00464 |
| Nc1nc(NCc2cc3cccc(Cl)c3nc2-c2ccccc2Cl)c2nc[nH]c2n1 [N6-((8-chloro-2-(2-chlorophenyl)-3-quinolinyl)methyl)-9H-purine-2,6-diamine] | 0.0089 |
| C[C@H](Nc1ncnc2[nH]cnc12)c1cc2cccc(Cl)c2nc1-c1cnccc1C(N)=O [3-(8-chloro-3-((1S)-1-(9H-purin-6-ylamino)ethyl)-2-quinolinyl)-4-pyridinecarboxamide] | 4.63 |
| C[C@H](Nc1ncnc2[nH]cnc12)c1cc2ccc(F)cc2nc1-c1cc(F)ccc1Cl [N-((1S)-1-(2-(2-chloro-5-fluorophenyl)-7-fluoro-3-quinolinyl)ethyl)-9H-purin-6-amine] | 0.02 |

| SMILES | IC50 [µM] |
| --- | --- |
| CC(C)Cc1ncc(F)cc1-c1nc2c(Cl)cccc2cc1[C@H](C)Nc1ncnc2[nH]cnc12 [N-((1S)-1-(8-chloro-2-(5-fluoro-2-(2-methylpropyl)-3-pyridinyl)-3-quinolinyl)ethyl)-9H-purin-6-amine] | 0.0155 |
| Clc1cccc2cc(CNc3ncnc4[nH]cnc34)c(-c3cn[nH]c3)nc12 [N-((8-chloro-2-(1H-pyrazol-4-yl)-3-quinolinyl)methyl)-9H-purin-6-amine] | 0.158 |
| C[C@H](Nc1ncnc2nc[nH]c12)c1cc2cccc(F)c2nc1-c1ccccc1Cl [N-((1S)-1-(2-(2-chlorophenyl)-8-fluoro-3-quinolinyl)ethyl)-7H-purin-6-amine] | 0.0114 |
| FC1CCCN(c2nc3c(Cl)cccc3cc2CNc2ncnc3[nH]cnc23)C1 (stereo not shown) [N-((8-chloro-2-(3-fluoro-1-piperidinyl)-3-quinolinyl)methyl)-9H-purin-6-amine] | 0.0955 |
| OCC[C@H](Nc1ncnc2[nH]cnc12)c1cc2cccc(Cl)c2nc1-c1ccccc1Cl [(3S)-3-(8-chloro-2-(2-chlorophenyl)-3-quinolinyl)-3-(9H-purin-6-ylamino)-1-propanol] | 0.0131 |
| Clc1ccccc1-c1nc2c(Cl)cccc2nc1CNc1ncnc2[nH]cnc12 [N-((5-chloro-3-(2-chlorophenyl)-2-quinoxalinyl)methyl)-9H-purin-6-amine] | 0.0825 |
| Cc1ncccc1-c1nc2c(Cl)cccc2cc1CNc1ncnc2[nH]cnc12 [N-((8-chloro-2-(2-methyl-3-pyridinyl)-3-quinolinyl)methyl)-9H-purin-6-amine] | 0.0134 |
| CC(C)c1cccc(-c2nc3c(Cl)cccc3cc2CNc2ncnc3[nH]cnc23)c1 [N-((8-chloro-2-(3-(1-methylethyl)phenyl)-3-quinolinyl)methyl)-9H-purin-6-amine] | 0.305 |
| Fc1cccc2cc(CNc3ncnc4nc[nH]c34)c(-c3ccccc3)nc12 [N-((8-fluoro-2-phenyl-3-quinolinyl)methyl)-7H-purin-6-amine] | 0.24 |
| C[C@H](Nc1ncnc2[nH]cnc12)c1cc2cccc(Cl)c2nc1-n1ccc(C(F)(F)F)n1 [N-((1S)-1-(8-chloro-2-(3-(trifluoromethyl)-1H-pyrazol-1-yl)-3-quinolinyl)ethyl)-9H-purin-6-amine] | 0.449 |
| N#Cc1ccccc1-c1nc2c(Cl)cccc2cc1CNc1ncnc2[nH]cnc12 [2-(8-chloro-3-((9H-purin-6-ylamino)methyl)-2-quinolinyl)benzonitrile] | 0.0551 |
| Fc1cccc2nc(-c3ccccc3Cl)c(CNc3ncnc4[nH]cnc34)nc12 [N-((3-(2-Chlorophenyl)-8-fluoroquinoxalin-2-yl)methyl)-9H-purin-6-amine] | 0.177 |
| C[C@@H](Nc1ncnc2[nH]cnc12)c1nc2cccc(Cl)c2nc1-c1cccc(F)c1 [N-((R)-1-(5-Chloro-3-(3-fluorophenyl)quinoxalin-2-yl)ethyl)-9H-purin-6-amine] | 0.0139 |
| C[C@H](Nc1ncnc2[nH]cnc12)c1cc2ccc(F)cc2nc1-c1ccccc1 [N-((1S)-1-(7-fluoro-2-phenyl-3-quinolinyl)ethyl)-9H-purin-6-amine] | 0.00511 |
| C[C@H](Nc1ncnc2[nH]cnc12)c1cc2cccc(Cl)c2nc1-c1cccc(F)c1 [N-((1S)-1-(8-chloro-2-(3-fluorophenyl)-3-quinolinyl)ethyl)-9H-purin-6-amine] | 0.00242 |
| C[C@H](Nc1ncnc2[nH]cnc12)c1cc2ccc(F)cc2nc1-c1ccccc1S(C)(=O)=O [N-((1S)-1-(7-fluoro-2-(2-(methylsulfonyl)phenyl)-3-quinolinyl)ethyl)-9H-purin-6-amine] | 0.00682 |

same assay, conditions: Homo sapiens, B-cell, purified human B cells, anti-Human IgM + CD40L-LZ, 72 h

| SMILES | IC50 [µM] |
| --- | --- |
| C[C@H](Nc1ncnc2[nH]cnc12)c1cc2ccc(F)cc2nc1-c1ccccc1Cl [N-((1S)-1-(2-(2-chlorophenyl)-7-fluoro-3-quinolinyl)ethyl)-9H-purin-6-amine] | 0.029 |
| C[C@H](Nc1ncnc2[nH]cnc12)c1cc2cccc(Cl)c2nc1-c1ccccc1F [N-((1S)-1-(8-chloro-2-(2-fluorophenyl)-3-quinolinyl)ethyl)-9H-purin-6-amine] | 0.00356 |
